In patent publication US11826373B2, “Methods for treatment of diseases” (Galera Labs, LLC, priority 2011, dated 2023):

Columns and labels:
[1] = GC4403 28-day IV toxicity in dog; assay type: in vivo; conditions: both sexes, dog, in vivo; beagle dogs, IV, 28 consecutive days; read-out: no observed adverse effect level (NOAEL)
Experimental: (§1) GC4403 was evaluated in a Good Laboratory Practice (GLP)-regulated study in beagle dogs. GC4403 was administered intravenously (IV) via slow bolus dose, once daily, to beagle dogs for 28 consecutive days. GC4403 was administered IV into the cephalic vein (0.5 mL/kg) to 3 groups of dogs (4 animals/sex/group) at dosages of 1.0, 3.0 and 6.0 mg/kg with a fourth group receiving vehicle (26 mM sodium bicarbonate in normal saline). […] There were no test article-related differences in group mean hematology, coagulation, or clinical chemistry parameters or urinalysis parameters after 28 days of treatment in any dosing group. At necropsy on day 29, there were neither test-article related gross macroscopic findings nor test-article-related differences in organ weight. No test-article-related histopathological lesions were present. There were no test-article-related electrocardiology (ECG) effects when evaluated on day 27.

beagle dogs [2] = test: GC4403 28-day IV toxicity in dog; assay type: in vivo; conditions: 28 days
Experimental: as §1

SD rats = test: Rat GC4403 7-day intravenous toxicity; assay type: in vivo
Experimental: GC4403 was Studied in a GLP toxicology study in which it was administered in 26 mM sodium bicarbonate/0.9% sodium chloride to SD rats (10/sex/group) IV (slow bolus 1 mL/kg/minute) at dosages of 0, 1, 3 or 10 mg/kg/day for 7 days (On Day 1, 1/10 male rats receiving 10 mg/kg/day died). The dosage was therefore decreased to 8 mg/kg/day on Day 2 for all surviving animals for the remainder of the study, and the original 10 mg/kg/day group was re-designated as the 8 mg/kg/day group. On Day 4, two females from the 8 mg/kg/day group also died. Clinical signs immediately following dose administration of 8 mg/kg/day were twitching, labored breathing, body drop and prostration. At the scheduled 1-hour observation time, animals appeared normal. Males and females given 8 mg/kg/day had decreased body weight gains, which were accompanied by decreased food consumption in the males only. […] Surviving rats were sacrificed, and all rats sacrificed or found dead were necropsied.

[3] = Activity toward hydrogen peroxide; assay type: biochemical
[4] = 14-day repeat dose toxicity of GC4419 in dog; assay type: in vivo, beagle dogs; conditions: both sexes, dog, in vivo, beagle dogs, IV over 15 minutes once daily
Experimental: (§2) GC4419 was evaluated in a GLP study in beagle dogs. GC4419 was administered intravenously (IV) over 15 minutes, once daily, to beagle dogs for 14 consecutive days. GC4419 was administered IV into the cephalic vein (4 mL/kg) to 3 groups of dogs (4 animals/sex/group) at dosages of 2.5, 5.0 and 7.5 mg/kg with a fourth group receiving vehicle (26 mM sodium bicarbonate in normal saline). […] All animals recovered from these effects. There were no test-article-related differences in group mean hematology, coagulation, or clinical chemistry parameters or urinalysis parameters after 14 days of treatment in any dosing group. At necropsy on day 15, there were neither test-article related gross macroscopic findings nor test-article-related differences in organ weight. No test-article-related histopathological lesions were present.

beagle dogs [5] = test: 14-day repeat dose toxicity of GC4419 in dog; assay type: in vivo; conditions: beagle dogs, 2.5, 5.0 and 7.5 mg/kg IV over 15 minutes, 14 days
Experimental: as §2

Rats = test: Rat GC4419 7-day IV study; assay type: in vivo
Experimental: A GLP toxicity study with GC4419 in bicarbonate buffer was performed. Rats (5/sex/group) were administered GC4419 as a 15 minute IV injection (4 mL/kg) at 0, 5, 10 or 15 mg/kg for 7 consecutive days. The control group received bicarbonate buffer. Evaluations for compound-related effects were based on clinical observations, body weight and food consumption. There were no deaths during the study and there were no signs of significant compound effects at any dosage.

[6] = tested on: radiation-induced oral mucositis; test: Hamster model of radiation-induced oral mucositis; assay type: in vivo, Male Syrian golden hamsters; conditions: all doses (3-30 mg/kg) administered prior to irradiation
Experimental: GC4403 and GC4419 were studied in a hamster model of oral mucositis (OM). Irradiation of the hamster cheek pouch induces lesions that are histologically similar to OM that which occurs clinically, and develop and resolve at a similar rate to radiation-induced OM in humans. […] The animals received 40 Gy radiation localized to the everted cheek pouch and were evaluated every second day for the development of inflammation at the radiation site. Inflammation was rated on a scale of 0 (normal) to 5 (total ulceration of pouch) by a trained observer, blinded to the treatment protocol.

healthy subjects = test: Human Phase 1 single rising dose safety and tolerability of GC4419; assay type: in vivo
Experimental: A human clinical trial entitled, “A Double-Blind, Placebo-Controlled, Single Rising Dose Study to Evaluate the Safety and Tolerability and Determine the Pharmacokinetics of M40419 Administered as a I5-Minute Intravenous Infusion in Healthy Subjects,” was conducted on 54 subjects. This was a single center, randomized, placebo-controlled, sequential panel, single dose safety, tolerability, and pharmacokinetic study of GC4419 administered as a 75-mL IV infusion over 15 minutes in escalating doses of 10 mg, 15 mg, 22 mg, 33 mg, 50 mg, 75 mg, and 112 mg. The study consisted of two phases: the first phase was a dose escalation with six subjects (four active and two placebo) in each cohort to determine a Maximum Tolerated Dose (MTD); the second phase was a repeat of the MTD dose in 12 subjects (eight active drug and four placebo) to confirm the MTD or safety of highest dose tested. The study population was comprised of 54 healthy male and female subjects (36 males, 18 females) between the ages of 18 and 50 years considered eligible on the basis of inclusion and exclusion criteria. There were four active and two placebo subjects for each dose level in the escalating dose phase of the study, and eight active and four placebo subjects for the confirmation of MTD phase.
All subjects receiving a dose of study medication were evaluated for safety. The safety of the drug product was assessed based on: treatment-emergent adverse events (TEAEs), clinical laboratory evaluations, vital signs, 12-lead electrocardiograms (ECGs) and standard ECG parameters including PR, QRS, QT, and QTc intervals.

[7] = single intravenous infusion over 15 minutes, healthy subjects

Compound	NOAEL at 28 days [1] [mg/kg/day]	mortality (beagle dogs [2]; beagle dogs, 1.0, 3.0 and 6.0 mg/kg IV)	no observed toxic effect level (NOTEL) (beagle dogs [2]; both, beagle, dog, in vivo, iv) [mg/kg/day]	mortality, females died (SD rats; 8 mg/kg/day group, Day 4)	mortality, male rats died (SD rats; 10 mg/kg/day, Day 1)	no observed toxic event level (NOTEL) (SD rats; rat, IV slow bolus injection, 7 days) [mg/kg/day]	activity toward hydrogen peroxide [3]	NOAEL at 14 days [4] [mg/kg/day]	mortality (beagle dogs [5])	decrease in body weight (Rats; males given 15 mg/kg/day, by Day 8)	mortality (Rats; rats, 5, 10 or 15 mg/kg, 7 days)	NOTEL (Rats; rats, males and females, 15 minute IV injection, 7 consecutive days) [mg/kg]	development of grade 3 or greater OM [6]	subjects who experienced at least one TEAE (healthy subjects; 30 of 36 subjects who received trial material, 10-112 mg) [%]	tolerability of single doses up to 112 mg (healthy subjects; healthy subjects)	tolerability of single intravenous doses from 10 mg to 50 mg (healthy subjects; healthy subjects)	MTD initially defined in the dose escalation phase (healthy subjects; [7]) [mg]	maximum tolerated dose (MTD), final (healthy subjects; [7]) [mg]
[Cl][Mn-5]1234([Cl])[n+]5c6cccc5C[NH+]1[C@@H]1CCCC[C@H]1[NH+]2CC[NH+]3[C@@H]1CCCC[C@H]1[NH+]4C6 (stereo partly drawn) [GC4403]	1	No animals died	3.0	two	1/10	3												
[Cl][Mn-5]1234([Cl])[n+]5c6cccc5C[NH+]1[C@H]1CCCC[C@@H]1[NH+]2CC[NH+]3[C@H]1CCCC[C@@H]1[NH+]4C6 (stereo partly drawn) [GC4419]							no detectable activity	5	No animals died	approximately 10%	no deaths	15	prevented the development of grade 3 or greater OM	83.3	no serious adverse events	safe and well tolerated with no adverse events	75	50
